The values below come from US20260234144A1 (TAY THERAPEUTICS LIMITED, priority 2023, published 2026).

In the experiment the test system is R223X stop codon in the mutated luciferase gene, ADXC8 luciferase reporter cell line. The experiment in a line: cells. Type of experiment: cell-based. Conditions: ADXC8 cells, 24 hours; for Emax / EC (100% of 200 uM G418 response): 24 h; for Emax: read-out: Fold Over Control, maximum fold response relative to 200 μM G418; for EC (100% of 200 uM G418 response): read-out: pC100%, negative logarithm of the concentration giving the same response as 200 μM G418.

Consider `CNc1nc(N[C@H]2CN(C)C[C@H]2O)nc2nc(C)c3c(c12)CCC3` [Example 364], for which the Emax was 100 to 3000% and the EC (100% of 200 uM G418 response) lay within 1 to 10 µM.

Consider `Cc1cc(C)c2c(N)nc(NC3CCN(Cc4cccc(O)c4)CC3)nc2n1` [Example 506], for which the Emax is 100 to 3000% and the EC (100% of 200 uM G418 response) lay in the range of 1 to 10 µM.

With `CNc1nc(NC2CNCC23COC3)nc2nc(C)cc(C)c12` (centres unmarked) [Example 410], the Emax lay in the range of 0 to 100% and the EC (100% of 200 uM G418 response) was above 31.6 µM.

For the molecule `Cc1cc(C)c2c(NCCS(C)(=O)=O)nc(NC3CCN(C)CC3)nc2n1` [Example 356], the Emax is 0 to 100% and the EC (100% of 200 uM G418 response) is above 31.6 µM.

In the case of `CN1CCC(Nc2nc(N)c3c(C#N)ccnc3n2)CC1` [Example 250, 4-amino-2-((1-methylpiperidin-4-yl)amino)pyrido[2,3-d]pyrimidine-5-carbonitrile], the Emax was 0 to 100% and the EC (100% of 200 uM G418 response) was above 100 µM.

As to `CC(=O)c1cnc2nc(NC3CCN(C)CC3)nc(N)c2c1` [Example 125, 1-{4-amino-2-[(1-methylpiperidin-4-yl)amino]pyrido[2,3-d]pyrimidin-6-yl}ethenone], the Emax lay within 0 to 100% and the EC (100% of 200 uM G418 response) is above 100 µM.

For `CNc1nc(NC2(CO)CCNC2)nc2nc(C)cc(C)c12` (single isomer, unassigned) [Example 440], the “Fold Over Control” value (maximum fold response relative to 200 μM G418) is given as “# (Fold over Ctrl ≥ 0 ≤ 1)”. In addition, the pC100% entry (negative logarithm of the concentration giving the same response as 200 μM G418) is “* (pC100 ≤ 4.5)”.

As for `Cc1cc(C)c2c(N)nc(NC3CCN(Cc4ccccc4C(F)F)CC3)nc2n1` [Example 493], the Emax fell in the range of 100 to 3000% and the EC (100% of 200 uM G418 response) was in the range of 1 to 10 µM.

For the molecule `CNc1nc(N[C@@H]2CCN(C)C2)nc2nc(OC)cc(C)c12` [Example 616], the Emax lay within 100 to 3000% and the EC (100% of 200 uM G418 response) was 1 to 10 µM.

Consider `[2H]C([2H])([2H])Nc1nc(NC2CCNCC2)nc2nc(C)cc(C)c12` [Example 589], for which the EC (100% of 200 uM G418 response) is 1 to 10 µM.

Turning to `Cc1cc(C)c2c(N)nc(NC3CCN(Cc4cccc(S(C)(=O)=O)c4)CC3)nc2n1` [Example 496], the Emax lay within 100 to 3000% and the EC (100% of 200 uM G418 response) lay in the range of 10 to 100 µM.

For `CNc1nc(N[C@@H]2CN(C)C[C@H]2C)nc2nc(C)cc(C)c12` [Example 378], the Emax was in the range of 100 to 3000% and the EC (100% of 200 uM G418 response) fell in the range of 1 to 10 µM.

With `Cc1cc(C)c2c(N)nc(N[C@@H]3CCN(Cc4ccc(C#N)cc4)C[C@@H]3O)nc2n1` [Example 562], the Emax fell in the range of 100 to 3000% and the EC (100% of 200 uM G418 response) lay within 1 to 10 µM.

Turning to `CNc1cc(N[C@H]2CNC[C@@H]2O)nc2nc3c(c(C)c12)CCC3` [Example 635], the EC (100% of 200 uM G418 response) was in the range of 1 to 10 µM.

Turning to `C#Cc1cnc2nc(NC3CCN(C)CC3)nc(N)c2c1` [Example 278], the Emax lay within 0 to 100% and the EC (100% of 200 uM G418 response) is above 31.6 µM.

`CNc1nc(N[C@H]2CN(C3CC3)C[C@@H]2O)nc2nc(C)cc(C)c12` [Example 612]: the Emax is 100 to 3000% and the EC (100% of 200 uM G418 response) lay in the range of 10 to 100 µM.

Consider `CN1CCC(Nc2nc(N)c3ccc(-c4ccc(Cl)cc4)nc3n2)CC1` [Example 96], for which the EC (100% of 200 uM G418 response) is 10 to 100 µM.

Turning to `Cc1cccc(-c2ccc3c(N)nc(NC4CCN(C)CC4)nc3n2)c1` [Example 49, N^2-(1-methylpiperidin-4-yl)-7-(m-tolyl)pyrido[2,3-d]pyrimidine-2,4-diamine], the EC (100% of 200 uM G418 response) was in the range of 1 to 10 µM.

In the case of `CC(CO)c1cnc2nc(NC3CCN(C)CC3)nc(N)c2c1` (centres unmarked) [Example 286], the Emax was 0 to 100% and the EC (100% of 200 uM G418 response) was above 100 µM.

Take `CNc1nc(N[C@H]2CNC[C@@H]2O)nc2nc(C)cc(C)c12` [Example 325]: the EC (100% of 200 uM G418 response) was 1 to 10 µM.

In the case of `Cc1cc(-c2ccccc2)nc2nc(N[C@@H]3CCNC3)nc(N)c12` [Example 301], the EC (100% of 200 uM G418 response) lay in the range of 1 to 10 µM.

As for `CNc1nc(N[C@H]2CN(C)CC[C@H]2OC)nc2nc(C)cc(C)c12` [Example 591], the Emax was in the range of 100 to 3000% and the EC (100% of 200 uM G418 response) was 0.1 to 1 µM.
